Literature values as cited in patent US6627219B2, “Oily capsule preparation and the method for preparing same” (Pharmaceutical Industry Technology and Development Center, priority 2000, dated 2003).
Read-outs that look alike come from different tables or passages of the source.

Legend:
[1] = not given; remark: listed apart in the source

- stability (basic medium of a pH higher than 7): stable
- stability (neutral or acid medium): easily degraded or denatured
- solubility in water [1]: hardly soluble in water
SMILES: COc1ccc2[nH]c([S+]([O-])Cc3ncc(C)c(OC)c3C)nc2c1 (stereo not drawn) [Omeprazole, 5-methoxy-2(((4-methoxy-3,5-dimethyl-2-pyridinyl)methyl)sulfinyl)1H-benzimidazole]
